Measurements published in the NIST ThermoML archive (doi:10.1021/je034157t).
Numbers after ± are expanded uncertainties.

Settings: Liquid

**Q.** For `F[C@H]([C@@H](F)C(F)(F)C(F)(F)F)C(F)(F)F` (relative stereo) [(R*,R*)-1,1,1,2,2,3,4,5,5,5-decafluoropentane], which “vapor or sublimation pressure” value (295.82 K) is on record?
**A.** Its value is 26.69 ± 0.08 kPa.

**Q.** And the “vapor or sublimation pressure” value (303.17 K)?
**A.** The value was 37.25 ± 0.09 kPa.

**Q.** What about the “vapor or sublimation pressure” value (305.11 K) of the same compound?
**A.** Its value is 40.56 ± 0.09 kPa.

**Q.** What about the “vapor or sublimation pressure” value (313.05 K) of the same compound?
**A.** The value was 56.54 ± 0.11 kPa.

**Q.** And the “vapor or sublimation pressure” value (318.04 K)?
**A.** Its value is 68.94 ± 0.12 kPa.

**Q.** And the “vapor or sublimation pressure” value (323.24 K)?
**A.** Its value is 84.1 ± 0.13 kPa.

**Q.** What about the “vapor or sublimation pressure” value (327.95 K) of the same compound?
**A.** Its value is 99.96 ± 0.14 kPa.

**Q.** For `F[C@H]([C@H](F)C(F)(F)F)C(F)(F)C(F)(F)F` (relative stereo) [(R*,S*)-1,1,1,2,2,3,4,5,5,5-decafluoropentane], which “vapor or sublimation pressure” value (293.17 K) is on record?
**A.** Its value is 34.49 ± 0.1 kPa.

**Q.** And the “vapor or sublimation pressure” value (302.95 K)?
**A.** Its value is 52.41 ± 0.11 kPa.

**Q.** And the “vapor or sublimation pressure” value (309.84 K)?
**A.** The value was 68.93 ± 0.13 kPa.

**Q.** What about the “vapor or sublimation pressure” value (313.03 K) of the same compound?
**A.** The value was 77.9 ± 0.15 kPa.

**Q.** And the “vapor or sublimation pressure” value (319.81 K)?
**A.** The value was 99.95 ± 0.17 kPa.

**Q.** Which “vapor or sublimation pressure” value (303.04 K) does the source give for `C1CCOC1` [tetrahydrofuran] here?
**A.** Its value is 26.67 ± 0.08 kPa.

**Q.** What about the “vapor or sublimation pressure” value (303.05 K) of the same compound?
**A.** The value was 26.68 ± 0.08 kPa.

**Q.** And the “vapor or sublimation pressure” value (305.11 K)?
**A.** The value was 29.09 ± 0.08 kPa.

**Q.** What about the “vapor or sublimation pressure” value (309.28 K) of the same compound?
**A.** Its value is 34.5 ± 0.09 kPa.

**Q.** What about the “vapor or sublimation pressure” value (313.11 K) of the same compound?
**A.** The value was 40.15 ± 0.09 kPa.

**Q.** What about the “vapor or sublimation pressure” value (316.36 K) of the same compound?
**A.** The value was 45.51 ± 0.1 kPa.

**Q.** What about the “vapor or sublimation pressure” value (318.1 K) of the same compound?
**A.** The value was 48.62 ± 0.1 kPa.
